In PubChem BioAssay (NCI):
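The compound was tested at five concentrations on cells cultured in 96-well plates, with a 48-hour exposure period. TGI denotes the concentration required for complete inhibition of growth.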

Experiments:
Assay in all cases: inhibition of tumour cell growth, NCI panel, 48 h
A498 renal = system: A498 renal
HT29 colon = system: HT29 colon
MALME-3M melanoma = system: MALME-3M melanoma
NCI-H23 lung = system: NCI-H23 lung
OVCAR-8 ovarian = system: OVCAR-8 ovarian
RPMI-8226 leukemia = system: RPMI-8226 leukemia
SF-268 CNS = system: SF-268 CNS
UO-31 renal = system: UO-31 renal
NCI/ADR-RES ovarian = system: NCI/ADR-RES ovarian
HOP-62 NSCLC = system: HOP-62 NSCLC

Row | SMILES | TGI (A498 renal) [µM] | TGI (HT29 colon) [µM] | TGI (MALME-3M melanoma) [µM] | TGI (NCI-H23 lung) [µM] | TGI (OVCAR-8 ovarian) [µM] | TGI (RPMI-8226 leukemia) [µM] | TGI (SF-268 CNS) [µM] | TGI (UO-31 renal) [µM] | TGI (NCI/ADR-RES ovarian) [µM] | TGI (HOP-62 NSCLC) [µM]
1 | CCOC(=O)/C=C1/C(CCCOCc2ccccc2)C2CCCC23CC2(CCN13)OCCO2 (configuration not stated) | 50.3 | 45.4 | 33.9 | 43.8 | > 100 | 25 | > 100 | 64.5 |  | 
2 | Cc1cc(N(C)C)c2ccccc2[n+]1CCCCCCCCCC[n+]1c(C)cc(N(C)C)c2ccccc21 | 14 | > 35 | > 41.6 | 5.32 | 16 | 4.33 | 33.3 | 13.1 | 43.9 | 
3 | CSc1csc(-c2ccc(-c3ccc(-c4cc(SC)cs4)s3)s2)c1 |  | > 100 | > 100 | > 100 |  | > 100 | > 100 | > 100 | > 100 | > 100
4 | CC(C)C1=CC23CCC4C(C)(C(=O)O)CCCC4(C)C2CC1C1C(=O)N(CCCCCCN2C(=O)C4C5CC6C7(C)CCCC(C)(C(=O)O)C7CCC6(C=C5C(C)C)C4C2=O)C(=O)C13 (configuration not stated) | 24.3 | 13.8 | 31.2 | 14.9 | 24.9 | > 100 | 26.8 |  |  | 
5 | O=C(O)c1cccc(S(=O)(=O)NN2C(=O)CSC2c2ccc(Cl)cc2Cl)c1 (configuration not stated) | > 100 | > 100 | > 100 | > 100 | 30.2 | > 100 | > 100 | > 100 |  | > 100
6 | CN1CCN(Cc2cc3c(nn2)-c2ccccc2C3=O)CC1 |  | > 100 | 39.2 | > 100 | > 100 | > 100 | > 100 | > 100 | > 100 | 
7 | CN1Cc2c(nc(-c3ccccc3)c[n+]2[O-])N(C)C1 | > 100 | > 100 | > 100 | > 100 | > 100 | > 100 | > 100 | > 100 |  | > 100
8 | COc1cccc2c1OC(c1cccc3ccccc13)C([N+](=O)[O-])=C2 (configuration not stated) |  | 4.5 | 4.08 | 4.29 | 20.9 | > 100 | 13.3 | 2.75 | 7.29 | 5.36
9 | O=C1/C(=C/c2ccc(Cl)cc2)CCCc2ccccc21 |  | 19.7 | 27.5 | 60.5 | 32.7 | 69 | 30.9 | 35.4 | 32.6 | 57.7
10 | CC(C)(C)N=C(N)NC#N |  | > 100 | > 100 | > 100 | > 100 | > 100 | > 100 | > 100 | > 100 | > 100
11 | CC(C(=O)COCc1ccccc1)P1(=O)OC(C)(C)CN1C(C)(C)C (configuration not stated) | > 100 | > 100 |  | > 100 | > 100 | > 100 | > 100 | > 100 | > 100 | > 100
12 | C[C@@H]1CCC2[C@@H](C)[C@@H](O[C@H]3O[C@@H]4O[C@@]5(C)CCC6[C@H](C)CCC([C@H]3C)[C@]64OO5)O[C@@H]3O[C@@]4(C)CCC1[C@@]23OO4 (some centres not stated) | > 25 | > 25 |  | > 25 | > 25 | > 7.26 | > 25 | > 25 | > 25 | > 25
13 | CC1=C(C#N)c2nc3ccccc3n2C(=O)C1(C)CCO (configuration not stated) | > 100 | > 100 | > 100 | > 100 | > 100 |  | > 100 | > 100 | > 100 | > 100
14 | O=C(OCC(Cl)(Cl)Cl)N1CC[C@H](C2CCCCC2)C1 |  |  |  | 33.2 |  |  | 36.3 | 35.3 | 28.5 | 32.8
15 | O=C1CSC2(CC(/C=C/c3cccs3)=NN2c2cccc(S(=O)(=O)O)c2)N1c1nc2ccccc2s1 (configuration not stated) | 92.7 | > 100 | > 100 | > 100 | > 100 | > 100 | > 100 | > 100 | > 100 | 
16 | [N-]=[N+]=CC(=O)OC(CCl)CCl | > 100 | > 100 | > 100 | > 100 |  | > 100 | > 100 | > 100 |  | > 100
17 | COc1ccc(/C=N/NC(=O)c2ccc(O)c(CN(C)C)c2)cc1 | 37.4 | > 100 | > 100 | > 100 | > 100 |  | > 100 | > 100 | > 100 | > 100
18 | Cc1ccnc(NC(=S)Nc2ccc([N+](=O)[O-])cc2)c1 |  | > 100 |  | > 100 | > 100 | > 100 | > 100 | > 100 | > 100 | > 100

Row | SMILES | TGI (A498 renal) [µM] | TGI (HT29 colon) [µM] | TGI (MALME-3M melanoma) [µM] | TGI (NCI-H23 lung) [µM] | TGI (OVCAR-8 ovarian) [µM] | TGI (RPMI-8226 leukemia) [µM] | TGI (SF-268 CNS) [µM] | TGI (UO-31 renal) [µM] | TGI (NCI/ADR-RES ovarian) [µM] | TGI (HOP-62 NSCLC) [µM]
19 | N#CC(c1ccccc1)N(CCOCCOCCN(C(=O)c1ccccc1)C(C#N)c1ccccc1)C(=O)c1ccccc1 (configuration not stated) | > 100 | > 100 | > 100 | > 100 | > 100 |  | > 100 | > 100 | > 100 | 
20 | O=C(NN1C(=O)CS(=O)(=O)C1c1ccc(C(F)(F)F)cc1)c1ccncc1 (configuration not stated) | > 100 | > 100 | > 100 | > 100 |  | > 100 | > 100 |  |  | > 100
21 | Cc1cc(C)nc(NC(=S)Nc2ccc([N+](=O)[O-])cc2)c1 | > 100 | > 100 |  | > 100 | > 100 | > 100 | > 100 | > 100 | > 100 | > 100
22 | C=C(CN(C)C)C(=O)c1ccc(C(=O)C(=C)CN(C)C)cc1 | > 100 | > 100 | > 100 | > 100 | > 100 | > 100 | > 100 | > 100 |  | 
23 | CN(C)Cc1cc(C(=O)/C=C/c2ccc([N+](=O)[O-])cc2)cc(CN(C)C)c1O | 23.9 | 25 |  | 47.5 | > 100 | 6.98 | 42.9 | > 100 | 87 | 19.5
24 | Clc1sc(Cl)c2c1[C@@H](Cl)C[C@@H]2Br |  | > 100 | > 100 | > 100 | > 100 |  | > 100 | > 100 |  | > 100
25 | Cn1c2ccccc2c2c(=S)c3ccccc3ccc21 | > 100 | > 100 | > 100 | > 100 | > 100 |  | > 100 | > 100 | > 100 | > 100
26 | COc1cc(C=O)ccc1O |  | > 100 | > 100 | > 100 | > 100 | > 100 | > 100 | > 100 | > 100 | > 100
27 | O=C(CN1C(=O)CC(c2ccccc2)(c2ccccc2)C1=O)N1CCN(CCO)CC1 | > 100 | > 100 |  | > 100 | > 100 | > 100 | > 100 | > 100 | > 100 | > 100
28 | CCOC(=O)/C(C(C)=O)=C(\OC(C)=O)c1ccncc1C(=O)O | > 100 | > 100 | > 100 | > 100 | > 100 | > 100 | > 100 | > 100 | > 100 | 
29 | COC(=O)c1ccccc1CC1Cc2cccc(C)c2C1=O (configuration not stated) |  | 58.3 | 48.3 | > 100 | > 100 |  | > 100 | 67.2 | > 100 | > 100
30 | O=C(CNc1ccc(Cl)cc1Cl)Nn1c(-c2ccccc2)nc2ccccc2c1=O |  | 37.6 | 34.6 | 29.8 | > 100 | 71.3 | 21.6 | 48.4 | 52.9 | 
31 | O=C1C(=Nc2ccc(Nc3ccccc3)cc2)Oc2ccccc21 | 21 | 4.53 | 9.71 | 3.93 | 6.07 |  | 9.73 | 5.58 |  | 22
32 | O=C(CC(=O)Nc1ccccc1)NNC(Sc1ccccc1)c1cc(N=Nc2ccc(Br)cc2)ccc1O (configuration not stated) | 5.84 | > 10 | > 10 | > 10 |  | > 10 | 8.9 | > 10 | > 10 | > 10
33 | Cc1cc(OP2(=O)NCc3ncccc3O2)ccc1Cl (configuration not stated) | > 100 |  |  | > 100 | > 100 | > 100 |  | > 100 | > 100 | > 100
34 | O=C1c2cccc3cccc(c23)C(=O)N1CCCNCCCCNCCCNCCCN1C(=O)c2cccc3cccc(c23)C1=O | 2.47 | 1.15 | 1.25 | 1.72 | 3.99 |  | 0.665 | 18.6 | 49.6 | 3.6
35 | C=C(C)CNCCN | > 100 | > 100 | > 100 | > 100 | > 100 |  | > 100 | > 100 | > 100 | > 100
36 | Nc1ncc2c(n1)-c1ccccc1OC2N1CCCC1 (configuration not stated) |  | > 100 | > 100 | > 100 | > 100 | > 100 | > 100 | > 100 | > 100 | > 100
